Laboratory results taken from US6420532B1, “Method of obtaining compositions comprising Y2 specific compounds” (Synaptic Pharmaceutical Corporation, priority 1994, dated 2002).

Columns and labels:
PYY-preferring receptor = details: rat small intestine; cited from earlier work
human Y2 receptor [1] = biological target: T1, human Y2 receptor (Homo sapiens, UniProt P49146); test: Inhibition of forskolin-stimulated cAMP accumulation (radioimmunoassay), stably transfected 293 cells; type: cell-based; parameters: expressed in transfected cells; details: maximum inhibition of cAMP accumulation relative to that produced by human NPY
T1 sequence (P49146 1-381): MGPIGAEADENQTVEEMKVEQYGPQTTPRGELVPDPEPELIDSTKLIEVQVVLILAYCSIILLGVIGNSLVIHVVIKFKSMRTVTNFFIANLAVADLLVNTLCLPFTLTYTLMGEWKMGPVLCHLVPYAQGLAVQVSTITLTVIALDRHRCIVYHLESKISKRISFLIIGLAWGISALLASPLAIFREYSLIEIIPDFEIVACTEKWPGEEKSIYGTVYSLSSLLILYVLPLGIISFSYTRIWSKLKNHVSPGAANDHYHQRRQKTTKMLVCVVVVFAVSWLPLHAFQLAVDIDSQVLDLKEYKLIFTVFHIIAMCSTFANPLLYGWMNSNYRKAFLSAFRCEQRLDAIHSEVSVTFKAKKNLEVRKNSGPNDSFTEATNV

human Y2 receptor [2] = biological target: T1, human Y2 receptor; details: stably transfected NIH-3T3 cells

Which “higher affinity for PYY than for NPY” value (PYY-preferring receptor) does the source give for “PYY: PYY, species not stated (Table 2, b7) [peptide YY]” here?
Its value is 5-10 fold.

For Neuropeptide Y [NPY, human], which “Function Emax” value (human Y2 receptor [1]) is on record?
The value was 100%.

And the “decrease of forskolin-stimulated cAMP accumulation” value (human Y2 receptor [2])?
Its value is 50%.
